What follows are molecules tested on adenovirus type 6 (ADV6) (assay: Evaluation of anti-adenovirus activity: CRL-11516 cells infected with ADV6, anti-hexon staining, count of stained cells). Conditions: CRL-11516 cells infected with ADV6, 48 hours culture, concentration reducing dark brown-stained cells by 50%; read-out: Anti-AdV activity EC50.
Type: cell-based
Procedure: A system in which CRL-11516 cells (available from ATCC) were infected with adenovirus type 6 (hereinafter, referred to as ADV6) was constructed, and a test for evaluating the anti-adenovirus activity of the compound according to the embodiment of the present invention and the compound of Comparative Example was carried out using the system. The test for evaluating the anti-adenovirus activity was carried out according to the method described below.
CRL-11516 cells were added to a 96-well plate at a cell density of 1×10^4 cells/well and cultured at 37° C. for 24 hours. After the culture was completed, the cell culture liquid was removed, and a serial dilution (100 μL) of the compound according to the embodiment of the present invention or the compound of Comparative Example was added. ADV6 (corresponding to 50TCID50) was added thereto, followed by culturing at 37° C. for 48 hours.
After the culture was completed, the infected cells were stained using Adeno-X Rapid Titer Kit (manufactured by Takara Bio Inc.). 100% methanol was added thereto and the cells were fixed at −20° C. for 10 minutes. The plate was washed three times with phosphate buffered saline (hereinafter, referred to as PBS) and then Mouse Anti-Hexon Antibody was added thereto, followed by incubation at 37° C. for 1 hour. After the incubation was completed, the plate was washed three times with PBS, and Rat Anti-Mouse Antibody was added thereto, followed by incubation at 37° C. for 1 hour. After the incubation was completed, a mixed staining solution of Stable Peroxidase Buffer:DAB Substrate=10:1 was added thereto, followed by incubation at room temperature for 10 minutes for staining of the cells.
The number of dark brown-stained cells was counted under a microscope, and the concentration of the test drug that reduces the dark brown-stained cells by 50% was defined as EC50. EC50 values were calculated for the triplicate test results, and a mean value and a standard deviation thereof were determined.

SMILES | EC50 [nM]
COc1nc(N)nc2c1ncn2[C@H]1C=C[C@@H](COP(=O)(OCCSSCCOCc2ccccc2)OCCSSCCOCc2ccccc2)C1 [Example 1-2-8, ((1S,4R)-4-(2-amino-6-methoxy-9H-purin-9-yl)cyclopent-2-en-1-yl)methylbis(2-((2-(benzyloxy)ethyl)disulfanyl)ethyl)phosphate] | 10 to 100
COc1nc(N)nc2c1ncn2[C@H]1C=C[C@@H](COP(=O)(N[C@@H](C)C(=O)OC(C)C)Oc2ccccc2)C1 (stereo partly drawn) [Example 4-4-1, Isopropyl ((((1 S,4R)-4-(2-amino-6-methoxy-9H-purin-9-yl)cyclopent-2-en-1-yl)methoxy)(phenoxy)phosphoryl)-L-alaninate] | 10 to 100
CC(C)OC(=O)[C@H](C)NP(=O)(OC[C@@H]1C=C[C@H](n2cnc3c(Cl)nc(N)nc32)C1)Oc1ccccc1 (stereo partly drawn) [Example 4-3-2, Isopropyl ((((1 S,4R)-4-(2-amino-6-chloro-9H-purin-9-yl)cyclopent-2-en-1-yl)methoxy)(phenoxy)phosphoryl)-L-alaninate] | 100 to 1000
COc1nc(N)nc2c1ncn2[C@H]1C=C[C@@H](COP(=O)(N[C@@H](C)C(=O)OC(C)C)Oc2cccc3ccccc23)C1 (stereo partly shown) [Example 6-2-25] | < 10
COc1nc(N)nc2c1ncn2[C@H]1C=C[C@@H](COP(=O)(N[C@@H](CC(C)C)C(=O)OC(C)C)Oc2ccccc2)C1 (single isomer, unassigned) [Example 7-1-1] | 10 to 100
COC(=O)[C@H](C)NP(=O)(OCCSC(=O)C(C)(C)C)OC[C@@H]1C=C[C@H](n2cnc3c(OC)nc(N)nc32)C1 (stereo partly drawn) [Example 4-6-1, ((((1S,4R)-4-(2-amino-6-methoxy-9H-purin-9-yl)cyclopent-2-en-1-yl)methoxy)(2-(pivaloylthio)ethoxy)phosphoryl)-L-alaninate] | < 10
COc1nc(N)nc2c1ncn2[C@H]1C=C[C@@H](COP(=O)(N[C@@H](C)C(=O)OC(C)C)Oc2ccccc2)C1 (stereo partly drawn) [Example 2-2-12, isopropyl ((((1S,4R)-4-(2-amino-6-methoxy-9H-purin-9-yl)cyclopent-2-en-1-yl)methoxy)(phenoxy)phosphoryl)-L-alaninate] | 100 to 1000
COC(=O)[C@H](C)NP(=O)(OC[C@@H]1C=C[C@H](n2cnc3c(Cl)nc(N)nc32)C1)Oc1ccc(Cl)cc1 (stereo partly drawn) [Example 1-2-4, methyl ((((1S,4R)-4-(2-amino-6-chloro-9H-purin-9-yl)cyclopent-2-en-1-yl)methoxy)(4-chlorophenoxy)phosphoryl)-L-alaninate] | < 10
COc1nc(N)nc2c1ncn2[C@H]1C=C[C@@H](COP(=O)(N[C@@H](C)C(=O)OC(C)C)Oc2ccc3c(c2)OCO3)C1 (stereo partly drawn) [Example 6-2-21, isopropyl ((((1S,4R)-4-(2-amino-6-methoxy-9H-purin-9-yl)cyclopent-2-en-1-yl)methoxy)(benzo[d][1,3]dioxolo-5-yloxy)phosphoryl)-L-alaninate] | 10 to 100

Same assay, conditions: Human mastadenovirus C, 48 h, CRL-11516 cells infected with ADV6, 48 hours culture, concentration reducing dark brown-stained cells by 50%; read-out: Anti-AdV activity EC50

SMILES | EC50 [nM]
COCCOc1nc(N)nc2c1ncn2[C@H]1C=C[C@@H](CO[P@](=O)(N[C@@H](C)C(=O)OC(C)C)Oc2ccccc2)C1 [Example 2-2-21, isopropyl ((R)-(((1S,4R)-4-(2-amino-6-(2-methoxyethoxy)-9H-purin-9-yl)cyclopent-2-en-1-yl)methoxy) (phenoxy)phosphoryl)-L-alaninate] | 10 to 100
COc1cccc(OP(=O)(N[C@@H](C)C(=O)OC(C)C)OC[C@@H]2C=C[C@H](n3cnc4c(OC)nc(N)nc43)C2)c1 (stereo partly drawn) [Example 6-2-7, isopropyl ((((1S,4R)-4-(2-amino-6-methoxy-9H-purin-9-yl)cyclopent-2-en-1-yl)methoxy)(3-methoxyphenoxy)phosphoryl)-L-alaninate] | 10 to 100
COc1nc(N)nc2c1ncn2[C@H]1C=C[C@@H](COP(=O)(N[C@@H](C)C(=O)OC(C)C)Oc2ccc(Cl)cc2)C1 (stereo partly drawn) [Example 1-2-72, isopropyl ((((1S,4R)-4-(2-amino-6-methoxy-9H-purin-9-yl)cyclopent-2-en-1-yl)methoxy)(4-chlorophenoxy)phosphoryl)-L-alaninate] | 10 to 100
COCCOc1cccc(OP(=O)(N[C@@H](C)C(=O)OC(C)C)OC[C@@H]2C=C[C@H](n3cnc4c(OC)nc(N)nc43)C2)c1 (stereo partly drawn) [Example 6-2-23, isopropyl ((((1S,4R)-4-(2-amino-6-methoxy-9H-purin-9-yl)cyclopent-2-en-1-yl)methoxy)(3-(2-methoxyethoxy)phenoxy)phosphoryl)-L-alaninate] | < 10
CC(C)OC(=O)[C@H](C)NP(=O)(OC[C@@H]1C=C[C@H](n2cnc3c(NC4CC4)nc(N)nc32)C1)Oc1ccccc1 (stereo partly drawn) [Example 2-2-2, Isopropyl ((((1S,4R)-4-(2-amino-6-(cyclopropyl-amino)-9H-purin-9-yl)cyclopent-2-en-1-yl)methoxy) (phenoxy)phosphoryl)-L-alaninate] | 100 to 1000
CC(C)OC(=O)[C@H](C)N[P@@](=O)(OC[C@@H]1C=C[C@H](n2cnc3c(N4CCC4)nc(N)nc32)C1)Oc1ccccc1 [Example 2-2-37, isopropyl ((R)-(((1S,4R)-4-(2-amino-6-(azetidin-1-yl)-9H-purin-9-yl)cyclopent-2-en-1-yl)methoxy)(phenoxy)phosphoryl)-L-alaninate] | 10 to 100
CNc1nc(N)nc2c1ncn2[C@H]1C=C[C@@H](COP(=O)(N[C@@H](C)C(=O)OC)Oc2ccc(Br)cc2)C1 (stereo partly drawn) [Example 1-2-46, Methyl ((((1S,4R)-4-(2-amino-6-(methylamino)-9H-purin-9-yl)cyclopent-2-en-1-yl)methoxy)(4-bromophenoxy)phosphoryl)-L-alaninate] | < 10
COc1nc(N)nc2c1ncn2[C@H]1C=C[C@@H](COP(=O)(N[C@@H](C)C(=O)OC2CC2)Oc2ccccc2)C1 (stereo partly drawn) [Example 1-2-58, cyclopropyl ((((1S,4R)-4-(2-amino-6-methoxy-9H-purin-9-yl)cyclopent-2-en-1-yl)methoxy)(phenoxy)phosphoryl)-L-alaninate] | 10 to 100
CC(C)OC(=O)[C@H](C)N[P@@](=O)(OC[C@@H]1C=C[C@H](n2cnc3c(N(C)C)nc(N)nc32)C1)Oc1ccccc1 [Example 2-2-25, isopropyl ((R)-(((1S,4R)-4-(2-amino-6-(dimethylamino)-9H-purin-9-yl)cyclopent-2-en-1-yl)methoxy)(phenoxy)phosphoryl)-L-alaninate] | 10 to 100

Same assay, conditions: Human mastadenovirus C, 48 h, read-out: Anti-AdV activity EC50, CRL-11516 cells infected with ADV6, 48 hours culture, concentration reducing dark brown-stained cells by 50%

SMILES | EC50 [nM]
COc1nc(N)nc2c1ncn2[C@H]1C=C[C@@H](COP(=O)(OCCSC(=O)C(C)(C)C)Oc2ccccc2)C1 (stereo partly drawn) [Example 4-7-1, S-(2-(((((1 S,4R)-4-(2-amino-6-methoxy-9H-purin-9-yl)cyclopent-2-en-1-yl)methoxy) (phenoxy)phosphoryl)oxy)ethyl) 2,2-dimethylpropanethioate] | 10 to 100

Same assay, conditions: Human mastadenovirus C; CRL-11516 cells infected with ADV6, 48 hours culture, concentration reducing dark brown-stained cells by 50%; read-out: Anti-AdV activity EC50

EC50 [nM] | SMILES
< 10 | COC(=O)[C@H](C)NP(=O)(OCCSC(=O)C(C)(C)C)OC[C@@H]1C=C[C@H](n2cnc3c(OC)nc(N)nc32)C1 (stereo partly drawn) [Example 1-2-12, methyl ((((1S,4R)-4-(2-amino-6-methoxy-9H-purin-9-yl)cyclopent-2-en-1-yl)methoxy)(2-(pivaloylthio)ethoxy)phosphoryl)-L-alaninate]
1000 to 10000 | Nc1nc2c(ncn2[C@H]2C=C[C@@H](CO)C2)c(=O)[nH]1 [Example 1]

Same assay, conditions: read-out: Anti-AdV activity EC50; CRL-11516 cells infected with ADV6, 48 hours culture, concentration reducing dark brown-stained cells by 50%

SMILES | EC50 [nM]
COc1nc(N)nc2c1ncn2[C@H]1C=C[C@@H](COP(=O)(OCCSC(=O)C(C)(C)C)Oc2ccccc2)C1 (stereo partly drawn) [Example 4-7-2, S-(2-(((((1 S,4R)-4-(2-amino-6-methoxy-9H-purin-9-yl)cyclopent-2-en-1-yl)methoxy) (phenoxy)phosphoryl)oxy)ethyl) 2,2-dimethylpropanethioate] | 10 to 100

Reference: patent publication US20210155644A1, “CYCLOPENTENYL PURINE DERIVATIVE OR SALT THEREOF” (Fujifilm Corporation, priority 2018, published 2021)
